Test results: ChEMBL document CHEMBL5523757, “Discovery, Synthesis, and Activity Evaluation of Novel Five-Membered Sulfur-Containing Heterocyclic Nucleosides as Potential Anticancer Agents In Vitro and In Vivo” (J Med Chem, 2024)

Tests used:
[1] = Acute toxicity in BALB/c mouse assessed as animal survival at 1000 mg/kg,ip observed after 14 days; assay type: organism-based; details: in vivo, time 14 day
[2] = Half life in BALB/c mouse plasma at 10 to 200 uM; assay type: ADME, cell-free; details: dose 10-200 µM
[3] = Acute toxicity in BALB/c mouse assessed as animal survival at 600 mg/kg,ip observed after 14 days; assay type: organism-based; details: in vivo, time 14 day
HepG2 = test: Antiproliferative activity against human HepG2 cells assessed as inhibition of cell growth incubated for 48 hrs by CCK-8 assay; assay type: functional, cell-based; details: Homo sapiens, HepG2, 48 h
[4] = Acute toxicity in female BALB/c mouse assessed as animal death at 200 to 400 mg/kg,ip observed after 1 day; assay type: organism-based; details: in vivo, 24 h, dose 200-400 mg/kg
PANC-1 = test: Antiproliferative activity against human PANC-1 cells assessed as inhibition of cell growth incubated for 48 hrs by CCK-8 assay; assay type: functional, cell-based; details: panc-1
[5] = Acute toxicity in female BALB/c mouse assessed as animal death at 200 to 600 mg/kg,ip observed after 2 day; assay type: organism-based; details: in vivo, 48 h, dose 200-600 mg/kg
[6] = Toxicity in BALB/c mouse xenografted with human HeLa cells assessed as histopathological change in kidney at 15 to 60 mg/kg,ip once daily for 14 days by hematoxylin and eosin staining analysis; assay type: organism-based; details: in vivo, 336 h, dose 15-60 mg/kg, time 14 day
[7] = Toxicity in BALB/c mouse xenografted with human HeLa cells assessed as histopathological change in spleen at 15 to 60 mg/kg,ip once daily for 14 days by hematoxylin and eosin staining analysis; assay type: organism-based; details: in vivo, 336 h, dose 15-60 mg/kg, time 14 day
HeLa [8] = test: Antiproliferative activity against human HeLa cells assessed as inhibition of cell growth incubated for 48 hrs by CCK-8 assay; assay type: functional, cell-based; details: hela
[9] = Toxicity in BALB/c mouse xenografted with human HeLa cells assessed as change in body weight at 15 to 60 mg/kg,ip once daily for 14 days; assay type: organism-based; details: in vivo, 336 h, dose 15-60 mg/kg, time 14 day
A549 = test: Antiproliferative activity against human A549 cells assessed as inhibition of cell growth incubated for 48 hrs by CCK-8 assay; assay type: functional, cell-based; details: Homo sapiens, A549, 48 h
[10] = Toxicity in BALB/c mouse xenografted with human HeLa cells assessed as histopathological change in liver at 15 to 60 mg/kg,ip once daily for 14 days by hematoxylin and eosin staining analysis; assay type: organism-based; details: in vivo, 336 h, dose 15-60 mg/kg, time 14 day
[11] = Acute toxicity in female BALB/c mouse assessed as animal death at 200 to 1000 mg/kg,ip observed for 4 to 15 days; assay type: organism-based; details: in vivo, dose lower 200 mg/kg, time lower 4 day, dose upper 1000 mg/kg, time upper 15 day
[12] = Acute toxicity in female BALB/c mouse assessed as animal death at 200 to 1000 mg/kg,ip observed after 3 days; assay type: organism-based; details: in vivo, 72 h, dose 200-1000 mg/kg, time 3 day
[13] = Acute toxicity in BALB/c mouse assessed as lethal dose at ip administration observed after 14 days; assay type: organism-based; details: in vivo, time 14 day
MCF7 = test: Antiproliferative activity against human MCF7 cells assessed as inhibition of cell growth incubated for 48 hrs by CCK-8 assay; assay type: functional, cell-based; details: Homo sapiens, MCF7, 48 h
[14] = Acute toxicity in male BALB/c mouse assessed as animal death at 200 to 1000 mg/kg,ip observed after 3 days; assay type: organism-based; details: in vivo, 72 h, dose 200-1000 mg/kg, time 3 day
[15] = Acute toxicity in female BALB/c mouse assessed as animal death at 1000 mg/kg,ip observed after 2 day; assay type: organism-based; details: in vivo, 48 h
[16] = Acute toxicity in BALB/c mouse assessed as animal survival at 400 mg/kg,ip observed after 14 days; assay type: organism-based; details: in vivo, time 14 day
HCT-116 = test: Antiproliferative activity against human HCT-116 cells assessed as inhibition of cell growth incubated for 48 hrs by CCK-8 assay; assay type: functional, cell-based; details: Homo sapiens, HCT-116, 48 h
[17] = Acute toxicity in BALB/c mouse assessed as animal survival at 200 mg/kg,ip observed after 14 days; assay type: organism-based; details: in vivo, time 14 day
[18] = Toxicity in BALB/c mouse xenografted with human HeLa cells assessed as histopathological change in lung at 15 to 60 mg/kg,ip once daily for 14 days by hematoxylin and eosin staining analysis; assay type: organism-based; details: in vivo, 336 h, dose 15-60 mg/kg, time 14 day
[19] = Acute toxicity in male BALB/c mouse assessed as animal death at 200 to 1000 mg/kg,ip observed for 4 to 15 days; assay type: organism-based; details: in vivo, dose lower 200 mg/kg, time lower 4 day, dose upper 1000 mg/kg, time upper 15 day
[20] = Acute toxicity in male BALB/c mouse assessed as animal death at 200 to 600 mg/kg,ip observed after 2 day; assay type: organism-based; details: in vivo, 48 h, dose 200-600 mg/kg
[21] = Acute toxicity in BALB/c mouse assessed as animal survival at 800 mg/kg,ip observed after 14 days; assay type: organism-based; details: in vivo, time 14 day
[22] = Toxicity in BALB/c mouse xenografted with human HeLa cells assessed as histopathological change in heart at 15 to 60 mg/kg,ip once daily for 14 days by hematoxylin and eosin staining analysis; assay type: organism-based; details: in vivo, 336 h, dose 15-60 mg/kg, time 14 day
HeLa [23] = test: Induction of apoptosis in human HeLa cells at 2 to 8 uM incubated for 48 hrs by annexin V-FITC/PI staining based flow cytometry relative to control; assay type: functional; details: dose 2-8 µM
[24] = Acute toxicity in male BALB/c mouse assessed as animal death at 200 to 400 mg/kg,ip observed after 1 day; assay type: organism-based; details: in vivo, 24 h, dose 200-400 mg/kg

CCOC(=O)C[C@H]1CSC[C@]1(C(=O)OCC)n1cnc2c(Cl)nc(Cl)nc21 (racemic)
survival at 336 h [1]: 0%
half-life at up to 200 µM [2]: 3 h
survival at 336 h [3]: 50%
IC50 (HepG2): 32.7 µM
Activity [4]: Non-Toxic
IC50 (PANC-1): 13 µM
Activity [5]: Non-Toxic
Activity [6]: Non-Toxic
Activity [7]: Non-Toxic
IC50 (HeLa [8]): 2.8 µM
Activity [9]: Non-Toxic
IC50 (A549): 46 µM
Activity [10]: Non-Toxic
Activity [11]: Non-Toxic
Activity [12]: Non-Toxic
LD50 at 336 h [13]: 613 mg/kg
IC50 (MCF7): 5.54 µM
Activity [14]: Non-Toxic
Activity [15]: Non-Toxic
survival at 336 h [16]: 100%
IC50 (HCT-116): 3.82 µM
survival at 336 h [17]: 100%
Activity [18]: Non-Toxic
Activity [19]: Non-Toxic
Activity [20]: Non-Toxic
survival at 336 h [21]: 10%
Activity [22]: Non-Toxic
Activity (HeLa [23]): 8.05%
Activity [24]: Non-Toxic
